Measured values from ChEMBL document CHEMBL5506042, “Discovery of the Clinical Candidate IDOR-1117-2520: A Potent and Selective Antagonist of CCR6 for Autoimmune Diseases” (J Med Chem, 2024).
Each block holds one molecule with its values, some of them ahead of it.

How the values were obtained:
[1] = Intrinsic clearance in human liver microsomes at 1 uM measured for 15 mins in presence of NADPH regenerating system measured per mg protein by LC-MS/MS analysis; format: ADME, Microsome; conditions: read-out: CLH
[2] = Drug metabolism in human liver microsomes assessed as dGSH trapping by measuring reactive metabolite formation at 10 uM measured after 60 mins in presence of dGSH and NADPH regenerating system by LC-MS/MS analysis; format: ADME, Microsome; conditions: 1 h
[3] = Cytotoxicity against human HepG2 cells assessed as reduction in cell viability incubated for 72 hrs by CellTiter-Glo assay
[4] = Dissociation constant, pKa of the compound by potentiometric titration based UV-Vis spectrophotometry
[5] = target: Voltage-gated inwardly rectifying potassium channel KCNH2 (Homo sapiens, UniProt Q12809); test: Inhibition of hERG expressed in CHO cells assessed as inhibition of channel current at holding potential of -80 mV by QPatch assay
Sequence of Voltage-gated inwardly rectifying potassium channel KCNH2 (Q12809 whole entry): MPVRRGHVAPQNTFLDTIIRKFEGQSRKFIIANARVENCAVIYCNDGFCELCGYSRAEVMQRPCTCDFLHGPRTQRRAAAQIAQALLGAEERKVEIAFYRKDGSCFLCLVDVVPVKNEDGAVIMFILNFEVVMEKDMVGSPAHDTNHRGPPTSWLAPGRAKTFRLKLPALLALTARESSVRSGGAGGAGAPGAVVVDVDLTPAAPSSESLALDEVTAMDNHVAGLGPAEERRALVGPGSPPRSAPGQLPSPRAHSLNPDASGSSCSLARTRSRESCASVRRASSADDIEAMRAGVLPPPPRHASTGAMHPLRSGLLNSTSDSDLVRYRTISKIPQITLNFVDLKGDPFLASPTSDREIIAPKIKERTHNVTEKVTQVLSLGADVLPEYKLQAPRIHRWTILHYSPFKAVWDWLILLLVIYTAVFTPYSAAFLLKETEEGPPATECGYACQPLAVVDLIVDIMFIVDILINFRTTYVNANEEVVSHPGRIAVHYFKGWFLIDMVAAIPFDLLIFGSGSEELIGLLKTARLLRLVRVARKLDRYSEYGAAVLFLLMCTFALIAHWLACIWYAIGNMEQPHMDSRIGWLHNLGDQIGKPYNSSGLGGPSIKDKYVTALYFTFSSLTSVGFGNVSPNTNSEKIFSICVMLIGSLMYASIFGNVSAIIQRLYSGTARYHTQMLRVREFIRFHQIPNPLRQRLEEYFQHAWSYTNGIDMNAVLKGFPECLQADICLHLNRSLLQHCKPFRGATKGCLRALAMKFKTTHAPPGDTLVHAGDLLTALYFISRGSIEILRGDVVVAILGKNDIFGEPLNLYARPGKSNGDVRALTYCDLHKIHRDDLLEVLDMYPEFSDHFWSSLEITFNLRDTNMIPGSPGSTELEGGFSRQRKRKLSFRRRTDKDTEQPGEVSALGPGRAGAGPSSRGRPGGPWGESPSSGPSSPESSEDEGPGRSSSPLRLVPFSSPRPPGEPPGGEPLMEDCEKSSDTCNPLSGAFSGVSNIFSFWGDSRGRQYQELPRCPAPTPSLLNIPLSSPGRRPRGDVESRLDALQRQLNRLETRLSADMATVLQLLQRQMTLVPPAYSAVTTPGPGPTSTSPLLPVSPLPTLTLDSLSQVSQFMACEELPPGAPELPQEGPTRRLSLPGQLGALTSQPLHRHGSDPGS

[6] = Lipophilicity, LogD of the compound in 1-Octanol/PBS at pH 7.4 by miniaturized shake flask method
[7] = target: T1, C-C chemokine receptor type 6 (Homo sapiens, UniProt P51684); test: Antagonist activity at human CCR6 expressed in HEK293 cells assessed as inhibition of CCL20-stimulated intracellular calcium mobilization by Fluo-8-AM based FLIPR analysis
T1 sequence (P51684 whole entry): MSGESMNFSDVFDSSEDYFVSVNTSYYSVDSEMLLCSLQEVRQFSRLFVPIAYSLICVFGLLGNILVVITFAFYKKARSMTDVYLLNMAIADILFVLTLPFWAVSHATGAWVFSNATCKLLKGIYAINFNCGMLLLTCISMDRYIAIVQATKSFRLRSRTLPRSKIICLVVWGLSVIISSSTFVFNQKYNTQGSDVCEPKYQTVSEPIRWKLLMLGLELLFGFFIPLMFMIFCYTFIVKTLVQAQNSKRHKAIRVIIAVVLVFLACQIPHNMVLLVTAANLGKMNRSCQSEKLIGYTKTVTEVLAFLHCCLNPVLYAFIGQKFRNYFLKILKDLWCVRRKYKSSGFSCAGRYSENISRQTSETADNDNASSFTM

HepaRG = test: Cytotoxicity against human HepaRG cells assessed as leakage of intracellular LDH at 100 uM incubated for 24 hrs by spectrophotometry; format: toxicity, cell-based

Compound: CC(C)c1ccc([C@](O)(c2cncc(N3CC4CC(C3)O4)c2)C2(C)CN(C)C2)cc1
microsomal CLint at […], 1 µM [1]: 20 µL/min/mg
Drug metabolism [2]: < 100 pmol/mg/h

Compound: COc1cncc(C(O)(c2ccc(OC(F)(F)F)cc2)C2(C)CN(C)C2)c1 (racemic)
IC50 at 72 h [3]: > 25 µM

Compound: CN1CC(F)(C(O)(c2ccc(OC(F)(F)F)cc2)c2cccc(Cl)c2)C1 (racemic)
pKa [4]: 7.9
IC50 [5]: 0.19 µM
logD [6]: > 4.1

Compound: CN1CC(C)(C(O)(c2ccc(OC(F)(F)F)cc2)c2ccccc2Cl)C1 (racemic)
IC50 [7]: 8.8 µM

Compound: CN1CC(C)(C(O)(c2ccc(OC(F)(F)F)cc2)c2cccc(N3CCCC3)c2)C1 (racemic)
IC50 at 72 h [3]: 5 µM

Compound: CN1CC(CO)(C(O)(c2ccc(OC(F)(F)F)cc2)c2cccc(Cl)c2)C1 (racemic)
pKa [4]: 9.1
IC50 [5]: 0.56 µM
logD [6]: 2.1
IC50 [7]: 3.52 µM

Compound: CN1CC(C(N)=O)(C(O)(c2ccc(OC(F)(F)F)cc2)c2cccc(Cl)c2)C1 (racemic)
pKa [4]: 8.1
IC50 [5]: 3.3 µM
IC50 [7]: 1.66 µM

Compound: CN1CC(C)(C(O)(c2ccc(Cl)cc2)c2ccc(OC(F)(F)F)cc2)C1 (racemic)
IC50 at 72 h [3]: 9.4 µM

Compound: CN1CC(C(O)(c2ccccc2)c2ccc(OC(F)(F)F)cc2)C1 (stereo unspecified)
IC50 [5]: 0.52 µM
IC50 [7]: 9.29 µM

Compound: CCOc1cncc(C(O)(c2ccc(OC(F)(F)F)cc2)C2(C)CN(C)C2)c1 (racemic)
logD [6]: 1.9
IC50 at 72 h [3]: > 25 µM
Activity (HepaRG): Non-Toxic

Compound: CN1CC(C)(C(O)(c2ccc(OC(F)(F)F)cc2)c2cnnc(N3CCCC3)c2)C1 (racemic)
IC50 at 72 h [3]: > 25 µM

Compound: CC(C)c1ccc([C@](O)(c2cncc(N3C[C@@H](F)[C@@H](F)C3)c2)C2(C)CN(C)C2)cc1
Drug metabolism [2]: < 100 pmol/mg/h

Compound: CC(=O)N1CC(C)(C(O)(c2ccccc2)c2ccc(OC(F)(F)F)cc2)C1 (stereo unspecified)
IC50 [5]: > 20 µM
IC50 [7]: > 20 µM

Compound: COc1cccc(C(O)(c2ccc(OC(F)(F)F)cc2)C2(C)CN(C)C2)c1 (racemic)
IC50 [5]: 0.22 µM
IC50 at 72 h [3]: > 25 µM

Compound: CC(C)COc1cccc(C(O)(c2ccc(OC(F)(F)F)cc2)C2(C)CN(C)C2)c1 (racemic)
IC50 at 72 h [3]: 10 µM

Compound: CN1CC(C)(C(O)(c2ccc(OC(F)(F)F)cc2)c2ccnc(N3CCCC3)c2)C1 (racemic)
IC50 at 72 h [3]: 9.2 µM

Compound: CN1CC(C#N)(C(O)(c2ccc(OC(F)(F)F)cc2)c2cccc(Cl)c2)C1 (racemic)
pKa [4]: 6.4
IC50 [7]: 0.763 µM

Compound: CN1CCC(C)(C(O)(c2ccccc2)c2ccc(OC(F)(F)F)cc2)C1 (stereo unspecified)
IC50 [7]: 1.44 µM

Compound: CCCC1(C(O)(c2ccccc2)c2ccc(OC(F)(F)F)cc2)CN(C)C1 (stereo unspecified)
IC50 [7]: > 20 µM

Compound: CN1CC(O)(C(O)(c2ccc(OC(F)(F)F)cc2)c2cccc(Cl)c2)C1 (racemic)
pKa [4]: 8.8
IC50 [5]: 1.9 µM
logD [6]: 2.7
IC50 [7]: 2.06 µM

More lines, now with the values ahead:

microsomal CLint at […], 1 µM [1]: 26 µL/min/mg
Drug metabolism [2]: 167 pmol/mg/h
Compound: CC(C)c1ccc([C@](O)(c2cccc(-c3noc(C4CCOCC4)n3)c2)C2(C)CN(C)C2)cc1

Drug metabolism [2]: 392 pmol/mg/h
Compound: CC(C)c1ccc([C@](O)(c2cncc(N3CC[C@](C)(O)C3)c2)C2(C)CN(C)C2)cc1

microsomal CLint at […], 1 µM [1]: 138 µL/min/mg
Drug metabolism [2]: 1021 pmol/mg/h
Compound: CC(C)c1ccc([C@](O)(c2cncc(N3CCOCC3)c2)C2(C)CN(C)C2)cc1

Drug metabolism [2]: 504 pmol/mg/h
Compound: CC(C)c1ccc([C@](O)(c2cncc(N3CC[C@H](O)C3)c2)C2(C)CN(C)C2)cc1

microsomal CLint at […], 1 µM [1]: 35 µL/min/mg
Compound: CC(C)c1ccc([C@](O)(c2cccc(-c3noc(C4(O)CCC4)n3)c2)C2(C)CN(C)C2)cc1

microsomal CLint at […], 1 µM [1]: < 10 µL/min/mg
Drug metabolism [2]: < 100 pmol/mg/h
Compound: CC(C)c1ccc([C@](O)(c2cnnc(N3CC4(CC4)CC3=O)c2)C2(C)CN(C)C2)cc1

microsomal CLint at […], 1 µM [1]: 15 µL/min/mg
Compound: CC(C)c1ccc([C@](O)(c2cccc(-c3noc(C(C)(O)C(F)(F)F)n3)c2)C2(C)CN(C)C2)cc1 (stereo partly specified)

Drug metabolism [2]: 162 pmol/mg/h
Compound: CC(C)c1ccc([C@](O)(c2cncc(N3CCCC3)c2)C2(C)CN(C)C2)cc1

microsomal CLint at […], 1 µM [1]: 68 µL/min/mg
Compound: CC(C)c1ccc(C(O)(c2cccc(-c3nc(C4CCOCC4)no3)c2)C2(C)CN(C)C2)cc1 (single isomer, unassigned)

Drug metabolism [2]: < 100 pmol/mg/h
Compound: CC(C)c1ccc([C@](O)(c2cncc(N3CC[C@H](C(C)(C)O)C3)c2)C2(C)CN(C)C2)cc1

microsomal CLint at […], 1 µM [1]: 475 µL/min/mg
Drug metabolism [2]: 323 pmol/mg/h
Compound: CC(C)c1ccc([C@](O)(c2cnnc(N3CCCC3)c2)C2(C)CN(C)C2)cc1

IC50 [7]: 1.21 µM
Compound: CC(C)c1ccc(C(O)(c2cccc(N3CCCC3)n2)C2(C)CN(C)C2)cc1 (racemic)

microsomal CLint at […], 1 µM [1]: 20 µL/min/mg
Compound: CC(C)c1ccc([C@](O)(c2cccc(-c3noc(CC(C)(C)O)n3)c2)C2(C)CN(C)C2)cc1

Drug metabolism [2]: < 100 pmol/mg/h
Compound: CC(C)c1ccc([C@](O)(c2cncc(N3CCCC3=O)c2)C2(C)CN(C)C2)cc1

Drug metabolism [2]: 541 pmol/mg/h
Compound: CC(C)c1ccc([C@](O)(c2cncc(N3CC[C@@H](O)C3)c2)C2(C)CN(C)C2)cc1
